Columns and labels:
Assay type in all cases: cell-based
[1] = tested on: S. mutans bacterial suspension (ATCC 25175); assay: Direct contact test (DCT) in bonding resin R2
Protocol: The DCT test is based on the turbidimetric determination of bacterial growth in 96-well microplates.
On the wall of each well, 15 μL of the resin to be tested are polymerized for 40 s, using a VALO® Grand LED curing light (Ultradent, Milan, Italy) in standard mode (1000 mW/cm^2, 2 maximum of emission in the ranges of wavelengths 395-415 nm and 440-480 nm);
In this way the side walls of the wells are coated with the polymerized material under test. The wells are then washed with phosphate buffered saline (PBS) before inoculating them with bacteria. Keeping the plate in vertical position, 10 μL of S. mutans bacterial suspension (ATCC 25175) in brain heart infusion medium (BHI) from an o/n culture, is then deposited on the layer of material present on the side walls of the wells. The plate is held upright for 1 hour to allow direct contact between bacteria and the cured material. 200 μL culture broth is then added to each of the wells with gentle mixing. The microplate is then placed in the chamber of a spectrophotometer for ELISA plates reading at 37° C. and the optical density in each well is measured at 600 nm at regular intervals (every 30 minutes for 18 hours). The whole experiment is conducted under aseptic conditions and is repeated on three microplates to ensure reproducibility of the result. 24 wells for each microplate were tested for each sample.
The bactericidal properties of the compounds according to Examples 1, 5, 6 and 7 within a reference bonding resin called R2 were tested using the “Direct contact test (DCT)” method described above. As a negative reference, the reference bonding resin was used without adding compounds according to the invention.
The reference resin called R2 has the following composition (% by weight): • 70% Bis-GMA (bisphenol A glycidyl dimethacrylate, CAS 1565-94-2, Sigma-Aldrich); • 28.75% TEGDMA (triethylene glycol dimethacrylate, CAS 109-16-0, Sigma-Aldrich); • 0.25% CQ (Camphorquinone, CAS 10373-78-1, Sigma-Aldrich); • 1% EDMAD (ethyl-4-dimethylamino benzoate, CAS 10287-53-3, Sigma-Aldrich) and was diluted with 20% by weight of EtOH for use.
For the tests execution, different quantities of the compounds according to examples 1, 5, 6 and 7 were added to the resin R2 in a quantity range from 0.1 to 10% by weight. The homogeneity of the material to be tested was ensured before application in the wells by carrying out a sonication (50%, 5 min) and mixing with Vortex (800 rpm, 5 min) of the various resins added with the compound according to the invention.

[2] = tested on: primary cells from human dental pulp; assay: Determination of the cytotoxicity (MTS assay); conditions: for maximum (tested) non-cytotoxic concentration: primary dental pulp cells
Protocol: Tested cells: primary from dental pulp in complete high glucose DMEM medium+1 mg ascorbic acid, seeded in 96-well dishes;
Cell viability detection method: MTS assay from Promega (CellTiter 96® AQueous One Solution Cell Proliferation Assay) colorimetric metabolic assay that allows to evaluate variations in the number of cells being a dye reduced by cellular dehydrogenases. The greater the number of cells, the greater the amount of reduced compound;
Execution time: 24 hours and 72 hours from treatment;
Negative control: cells seeded in complete DMEM medium (CNT) are used;
Number of samples: for 24 hours, 6 samples of each type; for 72 hours 8 samples of each type.
Procedure: Cells (6000/well) are seeded on a 96-well dish to form a monolayer at approximately 40% confluence. After 24 hours the medium is replaced by a medium in which the compound has previously been solubilized, sterilized by 0.22 micron filtration. Growth medium alone is used as a negative control (CNT). At the following 24 and 72 hours the colorimetric test is performed. The absorbance values for each sample are averaged and the standard deviation calculated. The percent viability is calculated on the negative control.
The compounds according to Examples 1, 5, 6, and 7 were tested in order to evaluate their cytotoxicity on primary cells from human dental pulp according to the “Determination of cytotoxicity” method described above, obtaining the values reported respectively in the following Tables 3, 4, 5, and 6. Cells were extracted from healthy third molars of patients after informed consent (Authorization Single Regional Committee FVG, study ID 2433, 29 Aug. 2018). After extraction, the stem cell nature was ascertained by evaluating the expression of the positive markers CD 90, CD 73, CD 29 and the negative markers CD 14, CD 34 and CD 45.

S. Sanguis (ATCC 10556) = assay: Determination of the minimum bactericidal concentration (MBC)
Protocol: (§1) A 20 mg/mL compound stock solution in BHI medium is prepared. In a 96-well plate, the compound solution is diluted serially (the concentration is halved at each step) to obtain the following final concentrations after addition of the bacteria suspension: 10 mg/mL; 5 mg/mL; 2.5 mg/mL; 1.25 mg/mL; 0.625 mg/mL; 0.31 mg/mL; 0.15 mg/mL; 0.08 mg/mL; 0.04 mg/mL; 0.02 mg/mL. Wells containing a mixture of penicillin and streptomycin antibiotics are used as a positive control. Compound-free medium is used as a growth control. A volume of bacterial suspension equal to 0.5*10^6 bacteria/mL is added to each well containing the compound and the controls. The dish is incubated at 37° C. for 24 hours. The lowest compound concentration at which no turbidity of the culture medium is evident is defined as MIC. For the calculation of MBC, aliquots equal to 50 μL are taken from the wells showing evident no turbidity of the medium and are plated on BHI agar plates for 48 hours. […] Bacterial suspensions taken from the positive control (growth medium only) and the negative control (growth medium with Ampicilin 100 μg/mL) are also seeded.
(§2) The compounds according to Examples 1, 3, 5, 6, and 7 were tested on bacterial strains different from S. mutans with the same methods described above, obtaining the MIC and MBC values reported in Table 2.

S. Aureus (ATCC 25923) = assay: as above
Protocol: as §1, §2

S. Mitis (ATCC 49456) = assay: as above
Protocol: as §1, §2

E. coli (ATCC25922) = assay: as above
Protocol: as §1, §2

| Compound | inhibition of bacterial survival by contact (optical density) ([1]; 1% by weight in resin R2) | % Viability 24 h ([2]; 10 μg/mL) [%] | % Viability 72 h ([2]; 10 μg/mL) [%] | % Viability 24 h ([2]; 50 μg/mL) [%] | % Viability 72 h ([2]; 50 μg/mL) [%] | % Viability 24 h ([2]; 100 μg/mL) [%] | % Viability 72 h ([2]; 100 μg/mL) [%] | % Viability 24 h ([2]; 500 μg/mL) [%] | % Viability 72 h ([2]; 500 μg/mL) [%] | MCB (S. Sanguis (ATCC 10556)) [mg/mL] | MCB (S. Aureus (ATCC 25923)) [mg/mL] | MCB (S. Mitis (ATCC 49456)) [mg/mL] | MCB (E. coli (ATCC25922)) [mg/mL] | % Viability 24 h ([2]; 1 μg/mL) [%] | % Viability 72 h ([2]; 1 μg/mL) [%] | maximum (tested) non-cytotoxic concentration [2] [µg/mL] | % Viability 24 h ([2]; 1 mg/mL) [%] | % Viability 72 h ([2]; 1 mg/mL) [%] | also measured |
| --- | --- | --- | --- | --- | --- | --- | --- | --- | --- | --- | --- | --- | --- | --- | --- | --- | --- | --- | --- |
| C=C(C)C(=O)OCC[N+](C)(C)CCCCCCCCCCCC[N+](C)(C)CCOC(=O)C(=C)C.[Br-].[Br-] [Example 1] | able to inhibit bacterial survival by contact | 95.3 ± 12.5 | 110.0 ± 13.8 | 105.6 ± 11.2 | 111.0 ± 7.2 | 102.7 ± 7.2 | 122.4 ± 7.0 | 86.6 ± 5.5 | 115.3 ± 11.6 | 0.62 | 0.156 | 0.62 | 0.625 | – | – | – | – | – | decrease in cell viability [2]: did not show significant signs of decrease in cell viability; % Viability 24 h ([2]; 2 mg/mL): 80.6 ± 5.3%; % Viability 72 h ([2]; 2 mg/mL): 76.9 ± 8.4% |
| C=C(C)C(=O)OCC[N+](CC)(CC)CCCCCCCCCCCC[N+](CC)(CC)CCOC(=O)C(=C)C.[Br-].[Br-] [Example 5] | able to inhibit bacterial survival by contact | 119.2 ± 6.8 | 69.7 ± 17.0 | 83.4 ± 4.5 | 70.8 ± 17.8 | 95.9 ± 7.2 | 68.8 ± 17.5 | 2.5 ± 1.0 | – | 0.039 | 0.039 | 0.039 | 0.156 | 124.2 ± 6.3 | 72.6 ± 16.5 | 100 | – | – | – |
| C=C(C)C(=O)Nc1ccc([N+](C)(C)CCCCCCCCCCCC[N+](C)(C)c2ccc(NC(=O)C(C)=O)cc2)cc1.[Br-].[Br-] [Example 6] | – | 99.5 ± 13.5 | 97.7 ± 14 | 81.7 ± 8.2 | 71.5 ± 16.3 | 11.3 ± 2.1 | 2.0 ± 0.8 | 1.6 ± 0.9 | 2.6 ± 3.6 | 0.005 | 0.01 | 0.01 | 0.002 | 95.2 ± 13.2 | 103.2 ± 18.9 | – | 2.5 ± 0.9 | 3.5 ± 1.5 | inhibition of bacterial survival by contact (optical density) ([1]; 0.5% by weight in resin R2): able to inhibit bacterial survival by contact |
| C=C(C)C(=O)NCc1cc[n+](CCCCCCCCCCCC[n+]2ccc(CNC(=O)C(=C)C)cc2)cc1.[Br-].[Br-] [Example 7] | able to inhibit bacterial survival by contact | 105.9 ± 11.9 | 100.6 ± 17.7 | 96.1 ± 10.5 | 86.3 ± 16.4 | 91.7 ± 12.0 | 71.8 ± 13.4 | 91.9 ± 16.8 | 26.5 ± 5.1 | 0.02 | 0.005 | 0.02 | 0.0025 | 110.8 ± 15.9 | 97.3 ± 17.5 | 50 | 49.1 ± 8.1 | 5.0 ± 2.3 | – |

Source: patent publication US20220402872A1, “PHOTOPOLYMERIZABLE ANTIBACTERIAL MONOMER” (UNIVERSITA' DEGLI STUDI DI TRIESTE, priority 2019, published 2022)
